Six molecules from patent US6130239A, “4-Alkenyl- and 4-alkynyloxindoles” (Hoffmann-La Roche Inc., priority 1999, dated 2000) can be followed below.

For test [1], the system named is SW480. The test is described as follows: Cell-based antiproliferative (MTT) assay, SW480 colon carcinoma line. Conditions: Homo sapiens, SW480, 96 h; 4 days post addition of test compound. As for the experimental part:
(§1) The estrogen receptor negative epithelial breast carcinoma line (MDA-MB-435) was purchased from American Type Cell Culture Collection (ATCC; Rockville, Md.) and was grown in the medium recommended by ATCC. For analysis of the effect of the test compounds on growth of these cells, the cells were plated at 2000 cells per well in a 96-well tissue culture plate, and were incubated overnight at 37° C. with 5% CO2. The next day, the test compounds were dissolved in 100% dimethyl sulfoxide (DMSO) to yield a 10 mM stock solution. Each compound was diluted with sterile medium to 1 mM in a sufficient quantity to yield a final concentration of 120 μM. The compounds were then serially diluted in medium with 1.2% DMSO. One-fourth final volume of the diluted compounds was transferred to 96 well plates. Test compounds were assayed in duplicate. DMSO was added to a row of "control cells" such that the final concentration of DMSO in each well was 0.3%. Wells to which no cells were added served as the "blank." Wells to which no inhibitor was added served as "no inhibitor control". The plates were returned to the incubator, and 5 days post addition of test compound, were analyzed as described below.
3-(4,5-Dimethylthiazole-2-yl)-2,5-diphenyl-2H-tetrazolium bromide (thiazolyl blue; MTT) was added to each well to yield a final concentration of 1 mg/mL. The plates were then incubated at 37° C. for 3 hours. The plates were centrifuged at 1000 rpm for 5 minutes prior to aspiration of the MTT-containing medium. The MTT-containing medium was then removed and 100 μL 100% ethanol was added to each well to dissolve the resulting formazan metabolite. To ensure complete dissolution, plates were shaken for 15 minutes at room temperature. Absorbencies were read in a microtiter plate reader (Molecular Dynamics) at a wavelength of 570 nm with a 650 nm reference. Percent inhibition was calculated by subtracting the absorbance of the blank (no cell) wells from all wells, then subtracting the division of the average absorbance of each test duplicate by the average of the controls from 1.00. Inhibitory concentrations (IC50) were determined from the linear regression of a plot of the logarithm of the concentration versus the percent inhibition.
The colon carcinoma line SW480 also was obtained from the ATCC and was tested according to the same protocol provided above with the following modification: cell line SW480 was plated at 1000 cells per well and analyzed at 4 days post addition of test compound.

In test [2] the test system is MDA-MB-435. The test is described as follows: Cell-based antiproliferative (MTT) assay, MDA-MB-435 breast carcinoma line. Conditions: Homo sapiens, MDA-MB-435, 120 h; 5 days post addition of test compound; mostly one experiment, average where repeated; read-out: MDA-MB435 IC50. The protocol:
as §1, with “below. […] MTT) was added to each well to yield a final concentration of 1 mg/mL. The plates were then incubated at 37° C. for 3 hours. The plates were centrifuged at 1000 rpm for 5 minutes prior to aspiration of the MTT-containing medium. The MTT-containing medium was then removed and 100 μL 100% ethanol was added to each well to dissolve the resulting formazan metabolite. To ensure complete dissolution, plates were shaken for 15 minutes at room temperature. Absorbencies were read in a microtiter plate reader (Molecular Dynamics) at a wavelength of 570 nm with a 650 nm reference. Percent inhibition was calculated by subtracting the absorbance of the blank (no cell) wells from all wells, then subtracting the division of the average absorbance of each test duplicate by the average of the controls from 1.00. Inhibitory concentrations (IC50) were determined from the linear regression of a plot of the logarithm of the concentration versus the percent inhibition.” for “below.”

Test [3] concerns the target T1, Cyclin E/CDK2 (Homo sapiens, UniProt P24941).
T1 construct: made in house; host or cells: insect cells
The test is described as follows: CDK2 FlashPlate Assay (inhibition of Rb phosphorylation by Cyclin E/CDK2). Conditions: Table IA; recombinant human Cyclin E/CDK2, Rb substrate, 25 minutes room temperature. In kind it is biochemical.

pIC50: −log10 of the molar value. Counter-ions that a name gives are not always drawn.

Turning to `CCC(N)(C#Cc1c(F)ccc2c1/C(=C/c1[nH]cnc1C)C(=O)N2)CC` [CCC, (Z)-4-[3-Amino-3-ethyl-1-pentynyl]-1,3-dihydro-5-fluoro-3-[(4-methyl-1H-imidazol-5-yl)methylene]-2H-indol-2-one], the pIC50 in test [1] was more than 6.00.

As to `CNCC#Cc1c(F)ccc2c1/C(=C/c1[nH]cnc1C)C(=O)N2` [RR, (Z)-1,3-Dihydro-5-fluoro-4-[3-(N-methylamino)-1-propynyl]-3-[(4-methyl-1H-imidazol-5-yl)methylene]-2H-indol-2-one], the pIC50 was more than 5.46 in test [2], more than 6.00 in test [1] and more than 5.40 in test [3].

In the case of `CCC(O)C#Cc1c(F)ccc2c1/C(=C/c1[nH]cnc1C)C(=O)N2` (racemic) [OO, rac-(Z)-1,3-Dihydro-5-fluoro-4-(3-hydroxy-1-pentynyl)-3-[(4-methyl-1H-imidazol-5-yl)methylene]-2H-indol-2-one], the pIC50 in test [2] was more than 5.46; in test [1], more than 6.00; in test [3] it was more than 5.40.

In the case of `CCC(O)C#Cc1c([N+](=O)[O-])ccc2c1/C(=C/c1[nH]cnc1C)C(=O)N2` (racemic) [PP, rac-(Z)-1,3-Dihydro-4-(3-hydroxy-1-pentynyl)-3-[(4-methyl-1H-imidazol-5-yl)methylene]-5-nitro-2H-indol-2-one], the pIC50 in test [2] is more than 5.46; in test [1], more than 6.00; in test [3], more than 5.40.

With `Cc1nc[nH]c1/C=C1\C(=O)Nc2ccc(F)c(C#CCN(C)C)c21` [UU, (Z)-1,3-Dihydro-4-[3-(N,N-dimethylamino)-1-propynyl]-5-fluoro-3-[(4-methyl-1H-imidazol-5-yl)methylene]-2H-indol-2-one], the pIC50 in test [2] is more than 5.46; in test [3], more than 5.40.

`Cc1nc[nH]c1/C=C1\C(=O)Nc2ccc(F)c(C#CCO)c21` [QQ, (Z)-1,3-Dihydro-5-fluoro-4-(3-hydroxy-1-propynyl)-3-[(4-methyl-1H-imidazol-5-yl)methylene]-2H-indol-2-one, trifluoroacetate salt]: the pIC50 was more than 5.46 in test [2] and more than 5.40 in test [3].
